Experimental data taken from patent publication US6403575B1, “3-Pyridyl enantiomers and their use as analgesics” (Abbott Laboratories, priority 1996, dated 2002).
Structures can show the parent of a compound that is named as a salt. Where two headings read alike, the source gives them in different places.

How the values were obtained:
[1] = dog, in vivo; for AUD0. / Cmax / Tmax / t½: po; for Cmax / Tmax / t½: 200 nmol/kg
Experimental: Beagle dogs were fasted overnight prior to dosing but were permitted free access to water. Each of the prodrugs was administered to a group of three animals at a dose of 200 nmol/kg. The formulation was adminstered by oral gavage. The prodrugs were prepared as 200 nmol/ml (1 ml/kg) solutions in normal saline. Blood samples from a jugular vein of each dog prior to dosing and 0.17, 0.33, 0.5, 0.75, 1, 1.5, 2, 3, 4, 6 and 8 hours after drug administration.

[2] = biological target: T1, neuronal nicotinic acetylcholine receptors (Rattus norvegicus, UniProt P09483+P12390); assay: [3H]-cytisine binding to neuronal nicotinic acetylcholine receptors, whole rat brain membranes
T1 construct: crude synaptic membrane preparations from whole rat brain; from tissue; host or cells: whole rat brain, crude synaptic membranes
T1 sequence (P09483 31-630): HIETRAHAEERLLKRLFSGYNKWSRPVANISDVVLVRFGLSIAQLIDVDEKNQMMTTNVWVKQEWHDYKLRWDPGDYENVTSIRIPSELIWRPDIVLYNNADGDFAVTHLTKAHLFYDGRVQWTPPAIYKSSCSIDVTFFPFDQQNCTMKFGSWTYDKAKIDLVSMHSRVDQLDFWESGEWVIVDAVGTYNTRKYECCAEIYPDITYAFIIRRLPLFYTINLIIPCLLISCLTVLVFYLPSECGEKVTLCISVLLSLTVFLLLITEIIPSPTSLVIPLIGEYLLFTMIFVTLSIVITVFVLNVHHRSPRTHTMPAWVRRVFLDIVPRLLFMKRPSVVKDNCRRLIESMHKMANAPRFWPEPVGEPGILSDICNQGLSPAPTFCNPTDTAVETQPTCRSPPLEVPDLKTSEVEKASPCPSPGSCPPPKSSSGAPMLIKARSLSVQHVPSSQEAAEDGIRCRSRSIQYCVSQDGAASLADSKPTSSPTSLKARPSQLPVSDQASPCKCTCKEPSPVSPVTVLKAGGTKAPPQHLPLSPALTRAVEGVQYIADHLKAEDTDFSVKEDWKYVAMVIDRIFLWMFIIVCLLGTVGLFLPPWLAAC
T1 sequence (P12390 25-500): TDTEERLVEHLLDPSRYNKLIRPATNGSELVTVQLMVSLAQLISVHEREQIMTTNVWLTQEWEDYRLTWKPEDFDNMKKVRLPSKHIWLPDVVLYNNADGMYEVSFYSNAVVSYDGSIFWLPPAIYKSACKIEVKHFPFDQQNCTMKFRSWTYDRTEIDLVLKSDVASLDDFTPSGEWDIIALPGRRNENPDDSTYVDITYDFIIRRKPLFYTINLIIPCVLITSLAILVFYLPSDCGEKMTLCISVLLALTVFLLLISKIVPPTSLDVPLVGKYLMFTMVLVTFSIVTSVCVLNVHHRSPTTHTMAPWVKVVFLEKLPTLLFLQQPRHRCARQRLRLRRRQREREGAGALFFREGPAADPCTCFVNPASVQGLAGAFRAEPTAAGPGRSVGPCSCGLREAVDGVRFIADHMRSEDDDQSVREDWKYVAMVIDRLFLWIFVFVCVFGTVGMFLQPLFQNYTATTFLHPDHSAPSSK
Experimental: Protocol for Determination of Nicotinic Acetylcholine Channel Receptor Binding Potencies of Ligands
Binding of [^3H]-cytisine ([^3H]-CYT) to neuronal nicotinic acetylcholine receptors was accomplished using crude synaptic membrane preparations from whole rat brain (Pabreza et al., Molecular Pharmacol., 1990, 39:9). Washed membranes were stored at −80° C. prior to use. Frozen aliquots were slowly thawed and resuspended in 20 volumes of buffer (containing: 120 mM NaCl, 5 mM KCl, 2 mM MgCl2, 2 mM CaCl2 and 50 mM Tris-Cl, pH 7.4 @4° C.). After centrifuging at 20,000×g for 15 minutes, the pellets were resuspended in 30 volumes of buffer. Homogenate (containing 125-150 μg protein) was added to triplicate tubes containing concentrations of test compound and [^3H]-CYT (1.25 nM) in a final volume of 500 μL. Samples were incubated for 60 minutes at 4° C., then rapidly filtered through Whatman GF/B filters presoaked in 0.5% polyethyleneimine using 3×4 mL of ice-cold buffer. The filters are counted in 4 mL of Ecolume® (ICN). Nonspecific binding was determined in the presence of 10 μM (−)-nicotine and values were expressed as a percentage of total binding.

mice = assay: Mouse Hot Plate Paradigm; format: in vivo; parameters: key to MED Hot plate model (μmol/kg, i.p.): NS = no significant effect observed relative to saline controls at the doses tested; settings: 30 minutes prior to testing, 55° C.; for minimal effective dose: ip, 0.5 h, i.p., read-out: MED Hot plate model (μmol/kg, i.p.)
[3] = [3H]-cytisine 1.25 nM, whole rat brain membranes, read-out: [3H] CYT Ki

COC(=O)c1ccc(C(=O)N2CC[C@@H]2COc2ccc(F)nc2)cc1 [4-MeO2CC6H4CO]
F* (%) efficiency of conversion [1]: 61.2% | AUD0. [1]: 42.37 ng·h/mL | Cmax [1]: 10.31 ng/mL | Tmax [1]: 0.8 h | t½ [1]: 1.8 h

O=C(c1ccc(Cl)cc1)N1CC[C@@H]1COc1ccc(F)nc1 [Example 4-ClC6H4CO]
F* (%) efficiency of conversion [1]: 26.9% | AUD0. [1]: 18.61 ng·h/mL | Cmax [1]: 4.54 ng/mL | Tmax [1]: 0.8 h | t½ [1]: 2.5 h

O=C(c1ccc(F)cc1)N1CC[C@@H]1COc1ccc(F)nc1 [Example 4-FC6H4CO]
F* (%) efficiency of conversion [1]: 13.5% | AUD0. [1]: 9.35 ng·h/mL | Cmax [1]: 3.25 ng/mL | Tmax [1]: 0.8 h | t½ [1]: 1.6 h

Cc1ccc(C(=O)N2CC[C@@H]2COc2ccc(F)nc2)cc1 [Example 4-MeC6H4CO]
F* (%) efficiency of conversion [1]: 43.1% | AUD0. [1]: 29.85 ng·h/mL | Cmax [1]: 7.05 ng/mL | Tmax [1]: 0.8 h | t½ [1]: 2.4 h

COc1ccc(C(=O)N2CC[C@@H]2COc2ccc(F)nc2)cc1 [Example 4-MeOC6H4CO]
F* (%) efficiency of conversion [1]: 37.7% | AUD0. [1]: 26.09 ng·h/mL | Cmax [1]: 7.43 ng/mL | Tmax [1]: 0.8 h | t½ [1]: 2.0 h

O=C(c1ccc([N+](=O)[O-])cc1)N1CC[C@@H]1COc1ccc(F)nc1 [Example 4-NO2C6H4CO]
F* (%) efficiency of conversion [1]: 27.1% | AUD0. [1]: 18.76 ng·h/mL | Cmax [1]: 6.01 ng/mL | Tmax [1]: 0.8 h | t½ [1]: 1.9 h

Cl.Cl.c1cncc(OC[C@H]2CCN2)c1 [Example 6, (R)-3-(2-Azetidinylmethyloxy)pyridine dihydrochloride]
Ki [2]: 0.04 nM | MED Hot plate model (μmol/kg, i.p.) (mice): NS

c1cncc(OC[C@@H]2CCN2)c1 [Example 7, (S)-3-(2-Azetidinylmethyloxy)pyridine dihydrochloride]
Ki [2]: 0.04 nM | minimal effective dose (mice): 6.2 µmol/kg

Brc1cncc(OC[C@@H]2CCN2)c1 [Example 12, 5-((2S)-Azetidinylmethyloxy)-3-bromopyridine dihydrochloride]
Ki [2, 3]: 0.26 nM | MED Hot plate model (μmol/kg, i.p.) (mice): NS

Cc1ccc(OC[C@@H]2CCN2)cn1 [Example 20, 5-((2S)-Azetidinylmethyloxy)-2-methylpyridine dihydrochloride]
Ki [2, 3]: 0.06 nM | minimal effective dose (mice): 0.62 µmol/kg

Clc1cncc(OC[C@@H]2CCN2)c1 [Example 21, 5-((2S)-Azetidinylmethyloxy)-3-chloropyridine dihydrochloride]
Ki [2, 3]: 0.04 nM | MED Hot plate model (μmol/kg, i.p.) (mice): NS

C=Cc1cncc(OC[C@@H]2CCN2)c1 [Example 22, 5-Vinyl-3-((2S)-Azetidinylmethyloxy)lpyridine dihydrochloride]
Ki [2, 3]: 0.97 nM

CCc1cncc(OC[C@@H]2CCN2)c1 [Example 23, 5-Ethyl-3-((2S)-Azetidinylmethyloxy)lpyridine hydrochloride]
Ki [2, 3]: 0.11 nM | MED Hot plate model (μmol/kg, i.p.) (mice): NS

CCCc1cncc(OC[C@@H]2CCN2)c1 [Example 24, 5-Propyl-3-((2S)-azetidinylmethyloxy)lpyridine hydrochloride]
Ki [2, 3]: 0.05 nM | minimal effective dose (mice): 62 µmol/kg

Cc1cc(OC[C@@H]2CCN2)cnc1Cl [Example 25, 2-Chloro-3-methyl-5-(2-(S)-azetidinylmethoxy)pyridine citrate]
Ki [2, 3]: 0.05 nM | minimal effective dose (mice): 0.062 µmol/kg

C=Cc1cc(OC[C@@H]2CCN2)cnc1Cl [Example 26, 2-Chloro-3-vinyl-5-((2S)-azetidinylmethoxy)pyridine hydrochloride]
Ki [2, 3]: 0.24 nM | minimal effective dose (mice): 1.9 µmol/kg

CCc1cc(OC[C@@H]2CCN2)cnc1Cl [Example 27, 2-Chloro-3-ethyl-5-((2S)-azetidinylmethoxy)pyridine hydrochloride]
Ki [2, 3]: 0.04 nM | MED Hot plate model (μmol/kg, i.p.) (mice): NS

CCCc1cc(OC[C@@H]2CCN2)cnc1Cl [Example 28, 2-Chloro-3-propyl-5-((2S)-azetidinylmethoxy)pyridine hydrochloride]
Ki [2, 3]: 0.03 nM | MED Hot plate model (μmol/kg, i.p.) (mice): NS

CCCCc1cc(OC[C@@H]2CCN2)cnc1Cl [Example 29, 3-Butyl-2-chloro-5-((2S)-azetidinylmethoxy)pyridine hydrochloride]
Ki [2, 3]: 0.16 nM | MED Hot plate model (μmol/kg, i.p.) (mice): NS

C#Cc1cc(OC[C@@H]2CCN2)cnc1Cl [Example 30, 2-Chloro-3-ethynyl-5-((2S)-azetidinylmethoxy)pyridine hydrochloride]
Ki [2, 3]: 0.04 nM | minimal effective dose (mice): 6.2 µmol/kg

Fc1ncc(OC[C@@H]2CCN2)cc1Br [Example 31, 5-((2S)-azetidinylmethoxy)-3-bromo-2-fluoropyridine dibenzoic acid salt]
Ki [2, 3]: 0.03 nM | minimal effective dose (mice): 6.2 µmol/kg

Cc1cc(OC[C@@H]2CCN2)cnc1F [Example 32, 5-((2S)-azetidinylmethoxy)-3-methyl-2-fluoropyridine benzoate]
Ki [2, 3]: 0.1 nM | MED Hot plate model (μmol/kg, i.p.) (mice): NS

Fc1ncc(OCC2CCN2)cc1Cl (stereo not shown) [Example 33, 5-((29)-azetidinylmethoxy)-3-chloro-2-fluoropyridine tosylate]
Ki [2, 3]: 0.04 nM

Clc1ncccc1OC[C@H]1CCN1 [Example 97, 2-Chloro-3-(2-(R)-azetidinylmethoxy)pyridine tosylate]
Ki [2, 3]: 85 nM

CN1CC[C@H]1COc1ccc(C(F)F)nc1 [Example 113, 6-Difluoromethyl-3-((1-methyl-2-(S)-azetidinyl)methoxy)pyridine citrate]
Ki [2, 3]: 0.17 nM

Clc1cncc(OC[C@H]2CCN2)c1 [Example 114, 3-(2-(R)-Azetidinylmethoxy)-5-chloropyridine tosylate]
Ki [2, 3]: 0.12 nM

Cc1ccc(OC[C@H]2CCN2)cn1 [Example 115, 6-Methyl-3-(2-(R)-azetidinylmethoxy)pyridine]
Ki [2, 3]: 0.07 nM

Fc1ccc(OC[C@@H]2CCN2)c(F)n1 [Example 116, 2.6-Difluoro-3-(2-(S)-azetidinylmethoxy)pyridine tosylate]
Ki [2, 3]: 0.34 nM

Cc1ccc(OC[C@@H]2CCN2)c(F)n1 [Example 117, 2-Fluoro-6-methyl-3-(2-(S)-azetidinylmethoxy)pyridine tosylate]
Ki [2, 3]: 0.17 nM

Cc1ccc(OC[C@H]2CCN2)c(F)n1 [Example 118, 2-Fluoro-6-methyl-3-(2-(R)-azetidinylmethoxy)pyridine tosylate]
Ki [2, 3]: 4.8 nM

CCOc1cncc(OC[C@@H]2CCN2)c1 [Example 120, 5-Ethoxy-3-(2-(S)-azetidinylmethoxy)pyridine tosylate]
Ki [2, 3]: 0.04 nM

Clc1ncccc1OC[C@@H]1CCN1 [Example 121, 2-Chloro-3-(2-(S)-azetidinylmethoxy)pyridine hydrochloride]
Ki [2, 3]: 2.3 nM

N#Cc1ccc(OC[C@@H]2CCN2)cn1 [Example 123, 6-Cyano-3-(2(S)-azetidinylmethoxy)pyridine hydrochloride]
Ki [2, 3]: 1.9 nM

Cc1ncc(OC[C@H]2CCN2)cc1Br [Example 124, 3-(2-(R)-azetidinylmethoxy)-5-bromo-6-methylpyridine tosylate]
Ki [2, 3]: 0.03 nM

Fc1ncc(OC[C@H]2CCN2)cc1Br [Example 125, 5-bromo-6-fluoro-3-(2-(R)-azetidinylmethoxy)pyridine]
Ki [2]: 0.04 nM

CCc1cc(OC[C@@H]2CCN2)cnc1F [Example 126, 5-ethyl-6-fluoro-3-(2-(S)-azetidinylmethoxy)pyridine]
Ki [2, 3]: 0.07 nM

Cc1cc(OC[C@H]2CCN2)cnc1Cl [Example 127, 2-Chloro-3-methyl-5-(2-(R)--azetidinylmethoxy)pyridine citrate]
Ki [2]: 0.06 nM

Brc1ccc(OC[C@H]2CCN2)cn1 [Example 128, 5-(2-(R)-azetidinylmethoxy)-2-bromo-pyridine tosylate]
Ki [2, 3]: 0.17 nM

C=Cc1cc(OC[C@H]2CCN2)cnc1F [Example 129, 5-((2R)-Azetidinylmethoxy)-2-fluoro-3-vinylpyridine tosylate]
Ki [2, 3]: 0.09 nM

C=CCc1cncc(OC[C@@H]2CCN2)c1 [Example 130, 3-(2-(S)-azetidinylmethoxy)-5-(3-propenyl)pyridine hydrochloride]
Ki [2, 3]: 0.04 nM

C=Cc1cc(OC[C@@H]2CCN2)cnc1F [Example 131, 5-(2-(S)-Azetidinylmethoxy)-3-ethenyl-2-fluoropyridine tosylate]
Ki [2, 3]: 0.13 nM

O=C(c1ccccc1)N1CC[C@@H]1COc1ccc(F)nc1 [PhCO]
F* (%) efficiency of conversion [1]: 27.3% | AUD0. [1]: 18.89 ng·h/mL | Cmax [1]: 6.31 ng/mL | Tmax [1]: 0.6 h | t½ [1]: 1.8 h
